Results reported in patent publication US11925679B2, “H3.3 CTL peptides and uses thereof” (The Regents of the University of California, priority 2015, dated 2024).

Experiments:
[1] = tested on: purified HLA-A2 class I molecules; assay: Competitive binding inhibition assay with purified HLA-A2 and radiolabeled probe peptide; set-up: species or system human; settings: cell-free binding assay, FIG. 8A
[2] = tested on: HLA-A*0201+ donor-derived PBMCs; assay: In vitro stimulation of donor PBMCs with peptide, tetramer staining of CD8+ T-cells
Method: Peripheral blood mononuclear cells from an HLA-A ? + donor were stimulated in vitro with the H3.3.K27M peptide and evaluated for their reactivity against: (1A) HLA-A ? /H3.3.K27M-specific tetramer and anti-CD8 mAb, and (1B) T2 cells pulsed with the mutant or non-mutated H3.3 peptide by IFN-γ ELISA.
Induction and isolation of H3.3K27M-specific CTL clones. To generate dendritic cells, the plastic adherent cells from PBMCs were cultured in AIM-V medium (Invitrogen) supplemented with 1,000 units/mL recombinant human granulocyte macrophage colony-stimulating factor and 500 units/mL recombinant human IL-4 (rhIL-4; Cell Sciences) at 37° C. in a humidified CO2 (5%) incubator. Six days later, the immature dendritic cells were stimulated with recombinant human tumor necrosis factor-α, IL-6, and IL-1 (10 ng/mL each). Mature dendritic cells were then harvested on day 8, resuspended in AIM-V medium at 1×10^6 cells per mL with peptide (10 μg/mL), and incubated for 2 hours at 37° C. Populations of autologous CD8^+ T-cells were enriched from PBMCs using magnetic microbeads (Miltenyi Biotech). CD8^+ T-cells (2×10^6 per well) were co-cultured with 2×10^5 per well peptide-pulsed dendritic cells in 2 mL/well of AIM-V medium supplemented with 5% human AB serum, 10 units/mL rhIL-2 (R&D Systems, Minneapolis, Minn.), and 10 units/mL rhIL-7 (Cell Sciences) in each well of 24-well tissue culture plates. On day 15, lymphocytes were re-stimulated with autologous dendritic cells pulsed with peptide in AIM-V medium supplemented with 5% human AB serum, rhIL-2, and rhIL-7 (10 units/mL each).
HLA-A*0201-peptide tetramer staining. […] (SEQ ID NO:2) tetramer (H3.3K27M-tetramer) was produced by the National Institute of Allergy and Infectious Disease tetramer facility within the Emory University Vaccine Center (Atlanta, Ga.) using the peptide synthesized by A&A labs (San Diego; CA). […] Cells were then washed with FACS Buffer (PBS containing 1% FBS). For some experiments, T-cells were stained with tetramer, followed by anti-human CD8 APC (Biolegend, 344722) and anti-human CD69 FITC (eBioscience, 11-0699-42).

Sequence	affinity to HLA-A*0201 relative to H3.3.K27M (26-35) [1]	CD8+tetramer+ population ([2]; FIG. 2A)	tetramer high subpopulation ([2]; FIG. 2A)	CD8+ cells bound to the HLA-A*0201-H3.3.K27M (26-35) tetramer ([2]; several weekly stimulation cycles in vitro)
XMSAPSTGGV [Cit H3.3]	partially retains its affinity	–	–	–
RMSAPSTGGV [H3.3.K27M (26-35)]	–	64.1 % of total lymphocyte-gated cells	2.4 % of total lymphocyte-gated cells	over 60%
